Test results published in the supplement of paper PMC5908809.

Tests used:
[1] = test system: normal NK cells expanded with K562-aAPC; test: drug sensitivity score (DSS) (DSS units); higher = more sensitive; extreme values may be limits of the assay; conditions: 72 h; IL-2 2.5 ng/mL
Protocol: (§1)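 Drug sensitivity and resistance testing on K562-aAPC-expanded normal NK cells: 5 concentrations (10-fold steps over a 10,000-fold range), 72 h at 37 °C, viability by CellTiter-Glo normalised to DMSO and benzethonium chloride controls; DSS from the fitted curve.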

[2] = test system: normal NK cells expanded with K562-aAPC; test: percent inhibition of viability; higher = more inhibition; conditions: 72 h, IL-2 2.5 ng/mL
Protocol: as §1

[3] = test system: normal primary NK cells, pool 1 (3 donors), resting (IL-2 0 ng/mL); test: as above; conditions: 72 h
[4] = test system: normal primary NK cells, pool 2 (3 donors) (IL-2 2.5 ng/mL); test: as above; conditions: 72 h
KAI3 (IL-2 2.5 ng/mL) [5] = test: as above; conditions: 72 h
KHYG-1 (IL-2 2.5 ng/mL) [6] = test: as above; conditions: 72 h
NKL (IL-2 2.5 ng/mL) [7] = test: as above; conditions: 72 h
YT (IL-2 2.5 ng/mL) [8] = test: as above; conditions: 72 h
IMC-1 (IL-2 20 ng/mL) [9] = test: as above; conditions: 72 h
DERL-7 (IL-2 2.5 ng/mL) [10] = test: as above; conditions: 72 h
NK-92 (IL-2 2.5 ng/mL) [11] = test: as above; conditions: 72 h
[12] = test system: normal primary NK cells, pool 3 (3 donors) (IL-2 2.5 ng/mL); test: as above; conditions: 72 h
NK-YS (IL-2 2.5 ng/mL) [13] = test: as above; conditions: 72 h
[14] = test system: normal primary NK cells, pool 1 (3 donors) (IL-2 2.5 ng/mL); test: as above; conditions: 72 h
SNK-6 (IL-2 2.5 ng/mL) [15] = test: as above; conditions: 72 h
[16] = test system: normal primary NK cells, pool 1 (3 donors), resting (IL-2 0 ng/mL); test: drug sensitivity score (DSS) (DSS units); higher = more sensitive; extreme values may be limits of the assay; conditions: 72 h
[17] = test system: normal primary NK cells, pool 2 (3 donors) (IL-2 2.5 ng/mL); test: as above; conditions: 72 h
KAI3 (IL-2 2.5 ng/mL) [18] = test: as above; conditions: 72 h
KHYG-1 (IL-2 2.5 ng/mL) [19] = test: as above; conditions: 72 h
NKL (IL-2 2.5 ng/mL) [20] = test: as above; conditions: 72 h
YT (IL-2 2.5 ng/mL) [21] = test: as above; conditions: 72 h
IMC-1 (IL-2 20 ng/mL) [22] = test: as above; conditions: 72 h
DERL-7 (IL-2 2.5 ng/mL) [23] = test: as above; conditions: 72 h
NK-92 (IL-2 2.5 ng/mL) [24] = test: as above; conditions: 72 h
[25] = test system: normal primary NK cells, pool 3 (3 donors) (IL-2 2.5 ng/mL); test: as above; conditions: 72 h
NK-YS (IL-2 2.5 ng/mL) [26] = test: as above; conditions: 72 h
[27] = test system: normal primary NK cells, pool 1 (3 donors) (IL-2 2.5 ng/mL); test: as above; conditions: 72 h
SNK-6 (IL-2 2.5 ng/mL) [28] = test: as above; conditions: 72 h

O=C(CCCCCCC(=O)Nc1ccc([C@H]2O[C@@H](CSc3nc(-c4ccccc4)c(-c4ccccc4)o3)C[C@@H](c3ccc(CO)cc3)O2)cc1)NO [Tubacin] (max concentration tested 10000 nM)
drug sensitivity score [1]: 3.3
percent inhibition of viability ([2]; 1 nM): -0.3%
percent inhibition of viability ([2]; 10 nM): 4.86%
percent inhibition of viability ([2]; 100 nM): 3.67%
percent inhibition of viability ([2]; 1000 nM): 7.82%
percent inhibition of viability ([2]; 10000 nM): 40.4%
percent inhibition of viability ([3]; 1 nM): -6.72%
percent inhibition of viability ([3]; 10 nM): -11.8%
percent inhibition of viability ([3]; 100 nM): 5.02%
percent inhibition of viability ([3]; 1000 nM): -11.8%
percent inhibition of viability ([3]; 10000 nM): 77.7%
percent inhibition of viability ([4]; 1 nM): -4.13%
percent inhibition of viability ([4]; 10 nM): -4.61%
percent inhibition of viability ([4]; 100 nM): 0.44%
percent inhibition of viability ([4]; 1000 nM): 0.6%
percent inhibition of viability ([4]; 10000 nM): 24%
percent inhibition of viability (KAI3 (IL-2 2.5 ng/mL) [5]; 1 nM): -2.25%
percent inhibition of viability (KAI3 (IL-2 2.5 ng/mL) [5]; 10 nM): -0.51%
percent inhibition of viability (KAI3 (IL-2 2.5 ng/mL) [5]; 100 nM): -0.15%
percent inhibition of viability (KAI3 (IL-2 2.5 ng/mL) [5]; 1000 nM): 12%
percent inhibition of viability (KAI3 (IL-2 2.5 ng/mL) [5]; 10000 nM): 87.7%
percent inhibition of viability (KHYG-1 (IL-2 2.5 ng/mL) [6]; 1 nM): -2.84%
percent inhibition of viability (KHYG-1 (IL-2 2.5 ng/mL) [6]; 10 nM): -3.16%
percent inhibition of viability (KHYG-1 (IL-2 2.5 ng/mL) [6]; 100 nM): 1.24%
percent inhibition of viability (KHYG-1 (IL-2 2.5 ng/mL) [6]; 1000 nM): 0.88%
percent inhibition of viability (KHYG-1 (IL-2 2.5 ng/mL) [6]; 10000 nM): 84.9%
percent inhibition of viability (NKL (IL-2 2.5 ng/mL) [7]; 1 nM): -14.5%
percent inhibition of viability (NKL (IL-2 2.5 ng/mL) [7]; 10 nM): -0.93%
percent inhibition of viability (NKL (IL-2 2.5 ng/mL) [7]; 100 nM): -1.27%
percent inhibition of viability (NKL (IL-2 2.5 ng/mL) [7]; 1000 nM): 28.3%
percent inhibition of viability (NKL (IL-2 2.5 ng/mL) [7]; 10000 nM): 86.2%
percent inhibition of viability (YT (IL-2 2.5 ng/mL) [8]; 1 nM): 0.56%
percent inhibition of viability (YT (IL-2 2.5 ng/mL) [8]; 10 nM): 0.68%
percent inhibition of viability (YT (IL-2 2.5 ng/mL) [8]; 100 nM): 3.58%
percent inhibition of viability (YT (IL-2 2.5 ng/mL) [8]; 1000 nM): 5.84%
percent inhibition of viability (YT (IL-2 2.5 ng/mL) [8]; 10000 nM): 88.3%
percent inhibition of viability (IMC-1 (IL-2 20 ng/mL) [9]; 1 nM): -1.32%
percent inhibition of viability (IMC-1 (IL-2 20 ng/mL) [9]; 10 nM): 0.91%
percent inhibition of viability (IMC-1 (IL-2 20 ng/mL) [9]; 100 nM): 3.12%
percent inhibition of viability (IMC-1 (IL-2 20 ng/mL) [9]; 1000 nM): 6.34%
percent inhibition of viability (IMC-1 (IL-2 20 ng/mL) [9]; 10000 nM): 99%
percent inhibition of viability (DERL-7 (IL-2 2.5 ng/mL) [10]; 1 nM): -2.36%
percent inhibition of viability (DERL-7 (IL-2 2.5 ng/mL) [10]; 10 nM): 4.2%
percent inhibition of viability (DERL-7 (IL-2 2.5 ng/mL) [10]; 100 nM): 7.74%
percent inhibition of viability (DERL-7 (IL-2 2.5 ng/mL) [10]; 1000 nM): 19.8%
percent inhibition of viability (DERL-7 (IL-2 2.5 ng/mL) [10]; 10000 nM): 86.6%
percent inhibition of viability (NK-92 (IL-2 2.5 ng/mL) [11]; 1 nM): -7.58%
percent inhibition of viability (NK-92 (IL-2 2.5 ng/mL) [11]; 10 nM): 4.48%
percent inhibition of viability (NK-92 (IL-2 2.5 ng/mL) [11]; 100 nM): 12.8%
percent inhibition of viability (NK-92 (IL-2 2.5 ng/mL) [11]; 1000 nM): 18.2%
percent inhibition of viability (NK-92 (IL-2 2.5 ng/mL) [11]; 10000 nM): 74.3%
percent inhibition of viability ([12]; 1 nM): -6.56%
percent inhibition of viability ([12]; 10 nM): -3.63%
percent inhibition of viability ([12]; 100 nM): 5.33%
percent inhibition of viability ([12]; 1000 nM): -0.47%
percent inhibition of viability ([12]; 10000 nM): 15.8%
percent inhibition of viability (NK-YS (IL-2 2.5 ng/mL) [13]; 1 nM): -6.18%
percent inhibition of viability (NK-YS (IL-2 2.5 ng/mL) [13]; 10 nM): -3.18%
percent inhibition of viability (NK-YS (IL-2 2.5 ng/mL) [13]; 100 nM): -0.57%
percent inhibition of viability (NK-YS (IL-2 2.5 ng/mL) [13]; 1000 nM): 4.16%
percent inhibition of viability (NK-YS (IL-2 2.5 ng/mL) [13]; 10000 nM): 93.2%
percent inhibition of viability ([14]; 1 nM): 2.38%
percent inhibition of viability ([14]; 10 nM): 1.13%
percent inhibition of viability ([14]; 100 nM): 3.02%
percent inhibition of viability ([14]; 1000 nM): -4.6%
percent inhibition of viability ([14]; 10000 nM): 47.5%
percent inhibition of viability (SNK-6 (IL-2 2.5 ng/mL) [15]; 1 nM): -5.06%
percent inhibition of viability (SNK-6 (IL-2 2.5 ng/mL) [15]; 10 nM): 2.23%
percent inhibition of viability (SNK-6 (IL-2 2.5 ng/mL) [15]; 100 nM): 22.3%
percent inhibition of viability (SNK-6 (IL-2 2.5 ng/mL) [15]; 1000 nM): 16.9%
percent inhibition of viability (SNK-6 (IL-2 2.5 ng/mL) [15]; 10000 nM): 89.8%
drug sensitivity score [16]: 3.59
drug sensitivity score [17]: 0.95
drug sensitivity score (KAI3 (IL-2 2.5 ng/mL) [18]): 6.87
drug sensitivity score (KHYG-1 (IL-2 2.5 ng/mL) [19]): 4.84
drug sensitivity score (NKL (IL-2 2.5 ng/mL) [20]): 8.82
drug sensitivity score (YT (IL-2 2.5 ng/mL) [21]): 5.78
drug sensitivity score (IMC-1 (IL-2 20 ng/mL) [22]): 6.44
drug sensitivity score (DERL-7 (IL-2 2.5 ng/mL) [23]): 7.93
drug sensitivity score (NK-92 (IL-2 2.5 ng/mL) [24]): 6.62
drug sensitivity score [25]: 0.27
drug sensitivity score (NK-YS (IL-2 2.5 ng/mL) [26]): 5.76
drug sensitivity score [27]: 2.14
drug sensitivity score (SNK-6 (IL-2 2.5 ng/mL) [28]): 7.71
